Assay [1] addresses T1, WT-ZAK (Homo sapiens, UniProt Q9NYL2).
T1 construct: Full-length cDNA encoding human ZAK-13 (BC001401); expressed in transfected cells
Put plainly: in-gel fluorescence labeling by HNEyne probe. It is filed as binding. The settings on record: in vitro (10 μM) and in living cells (5 μM), 1 hour. The procedure:
(§1) The gel signals for IA-labeling of WT-ZAK were blocked by pretreatment with HNE over a concentration range that closely matched the HNE-sensitivity profile observed for C22 in competitive isoTOP-ABPP experiments (FIG. 4b, compare to FIG. 3a). […] Considering further that C22 is predicted to reside adjacent to the ATP-binding loop of ZAK, we postulated that the HNE-induced loss of kinase activity might be due to blockade of ATP-binding.
(§2) 50 μL of soluble lysate (1 mg/mL in PBS) of […] cells transfected with mock ZAKWT and ZAK-C22A was labeled with 10 μM of HNEyne4 (Cayman Chemicals, 1 μL of 500 μM stock in ethanol) for 1 hour at room temperature. Cycloaddition was performed with 200 μM rhodamine-azide, 1 mM TCEP, 100 μM TBTA ligand and 1 mM CuSO4. The reaction was allowed to proceed at room temperature for 1 hour before quenching with 20 μL of 4×SDS-PAGE loading buffer (reducing). Quenched reactions were separated by SDS-PAGE (40 μL of sample/lane) and visualized in-gel using a fluorescence scanner. For the in situ HNEyne labeling, WT- and C22A-ZAK transfected cells were grown in a 6-well plate to 100% confluency and switched into 1 mL of serum-free DMEM medium. […] 50 μL of soluble lysates were subjected to the cycloaddition protocol as described above and probe labeling was monitored by in-gel fluorescence.

For assay [2], the target named is T2, C22A-ZAK (Homo sapiens, UniProt Q9NYL2, C22A).
T2 construct: Full-length cDNA encoding human ZAK-13 (BC001401); expressed in transfected cells
Briefly: in-gel fluorescence labeling by HNEyne probe. It is filed as binding. The settings on record: in vitro (10 μM) and in living cells (5 μM), 1 hour. The procedure: as §1, §2

T1 sequence (Q9NYL2 1-455 isoform Q9NYL2-2): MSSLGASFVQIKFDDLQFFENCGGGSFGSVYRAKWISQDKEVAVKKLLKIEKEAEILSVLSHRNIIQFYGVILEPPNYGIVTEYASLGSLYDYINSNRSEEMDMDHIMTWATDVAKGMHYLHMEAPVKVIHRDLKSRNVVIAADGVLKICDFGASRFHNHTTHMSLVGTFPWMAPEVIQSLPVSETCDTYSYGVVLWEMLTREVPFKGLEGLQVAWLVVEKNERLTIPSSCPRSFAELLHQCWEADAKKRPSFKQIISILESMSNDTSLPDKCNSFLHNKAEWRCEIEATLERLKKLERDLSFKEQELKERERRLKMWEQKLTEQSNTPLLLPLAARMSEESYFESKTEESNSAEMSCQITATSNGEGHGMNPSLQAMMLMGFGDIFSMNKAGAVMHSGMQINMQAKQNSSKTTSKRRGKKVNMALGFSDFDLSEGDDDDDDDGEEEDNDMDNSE
T2 sequence (Q9NYL2 1-455 isoform Q9NYL2-2 C22A): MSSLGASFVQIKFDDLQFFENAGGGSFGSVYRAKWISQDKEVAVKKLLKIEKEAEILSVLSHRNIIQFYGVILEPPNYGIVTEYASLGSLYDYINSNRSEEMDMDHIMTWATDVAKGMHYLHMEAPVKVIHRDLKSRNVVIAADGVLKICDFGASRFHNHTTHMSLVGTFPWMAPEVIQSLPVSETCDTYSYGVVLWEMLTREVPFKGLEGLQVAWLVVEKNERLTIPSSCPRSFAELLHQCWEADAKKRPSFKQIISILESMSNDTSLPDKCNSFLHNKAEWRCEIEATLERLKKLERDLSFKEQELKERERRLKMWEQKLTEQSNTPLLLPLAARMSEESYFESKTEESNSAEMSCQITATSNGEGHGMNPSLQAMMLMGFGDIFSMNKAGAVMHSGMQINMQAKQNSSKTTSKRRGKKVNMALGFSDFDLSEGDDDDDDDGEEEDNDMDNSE

For the molecule `C#CCCCC(O)C=CC=O` (centres unmarked) [HNEyne], in assay [1], the “probe labeling of WT-ZAK” value is given as “direct labeling”. Further, the “probe labeling of C22A-ZAK mutant” value in assay [2] is given as “but not the C22A-ZAK mutant”.

The values are drawn from patent US10782295B2, “Cysteine-reactive ligand discovery in proteomes” (THE SCRIPPS RESEARCH INSTITUTE, priority 2013, dated 2020).
